Experimental data taken from patent US8288372B2, “Method for treating headache with loxapine” (Alexza Pharmaceuticals, Inc., priority 2002, dated 2012).
Like-named read-outs stand apart in the source and are kept apart here. Marks after values point to notes of the source that are not given here. Blank lines part the entries; values can stand above or below the compound they belong to.

What was measured:
[1] = tested on: Male mice; assay: Mouse writhing test (acetic acid 0.5% i.p.); conditions: for Effect on the number of writhes induced by acetic acid: five doses i.p.; for Dose from which the number of writhes was significantly decreased: Mann Whitney U test vs vehicle
Method: Male mice weighing 23-28 g were used in this test. Mice were injected with acetic acid (0.5% i.p.). This treatment induces a recognizable writhing response in control animals. The number of writhes is counted for 10 minutes beginning 5 minutes after injection of acetic acid. Ten mice were studied per group. The test was performed blind. Loxapine and amoxapine (dispersed in 0.2% hydroxypropylmethylcellulose, then dissolved in saline) were evaluated at five doses, administered i.p. 30 minutes before acetic acid, and compared with a vehicle control (0.2% hydroxypropylmethylcellulose in saline) group. Dosage rates for loxapine were 0.125, 0.25, 0.5, 1 and 2 mg/kg. Dosage rates for amoxapine were 1, 2, 4, 8 and 16 mg/kg. […] The data were analyzed by comparing the treated groups with the vehicle control using Mann Whitney U tests.

[2] = cited from earlier work
[3] = tested on: animal model; conditions: chronic administration of amoxapine alone; cited from earlier work
[4] = Toxicokinetic analysis of loxapine plasma concentration after aerosol inhalation; format: in vivo, beagle dogs
Method: On the first day of the repeat dose (5 day) portion of the study, plasma samples were collected for toxicokinetic analysis prior to dosing, 2 minutes after the onset of dosing, immediately after dosing, 20 minutes and 1, 3, 9 and 24 hours post dosing. Samples were stored at −80° C. until loxapine plasma concentration analysis. Loxapine plasma concentration can be measured using analytical methods well known in the art, such as LC/MS, LC/MS/MS, and/or GC/MS. […] The rate of rise in loxapine plasma concentration is found to average at least 70 ng/mL/minute at the 2 mg/kg dose level over the first 2 minutes of dosing, and 20 ng/mL/minute at the 2 mg/kg dose level over the first 10 minutes of dosing. The rate of rise in loxapine plasma concentration is found to average at least 7 ng/mL/minute at the 0.2 mg/kg dose level over the first 2 minutes of dosing, and 2 ng/mL/minute at the 0.2 mg/kg dose level over the first 10 minutes of dosing. Therapeutic plasma levels of approximately at least 0.5 ng/mL, 1 ng/mL, 2 ng/mL, 4 ng/mL, 8 ng/mL, or even 15 ng/mL are obtained within 10 minutes, 5 minutes, and even within 2 minutes at both dose levels.

[5] = tested on: person with migraine headache; assay: Clinical use of loxapine tablet for an acute migraine attack; format: in vivo, human; conditions: 25 mg tablet by mouth
Method: A person in generally good health notes onset of moderate pain localizing to the right side of their head over approximately 10 minutes while at home. Over the next 10 minutes, the pain becomes more severe, characterized by throbbing. The person recognizes this as a migraine headache, and also knows that for their such headaches, when untreated, tend to persist for at least a full day with nausea accompanying the headache pain and with the pain so severe as to render sleeping difficult or impossible. The person turns down the lights in their living room to avoid the pain caused by bright light entering their eyes, and turns off the radio, because noise from the radio was worsening their headache pain. They take a 25 mg loxapine tablet by mouth with a glass of water. Over the next 15 minutes, the headache pain begins to […], and the person's stomach is mildly upset. […] Their stomach no longer bothers them. […] Light and sound are no longer bothersome. They eat a normal meal without stomach upset.

[6] = tested on: subjects with a history of moderate to severe migraine headache; assay: Phase II clinical trial of loxapine for the treatment of acute migraine attacks; format: in vivo, human
Source text: The study methodology is a double-blind, randomized, placebo-controlled dose-ranging trial. Healthy male and female subjects 18 to 65 years of age, inclusive, with a history of moderate to severe migraine headache by self-report (migraine with or without aura) with average frequency of 1-6 attacks per month during the past 3 months are recruited to participate in the study. Those subjects meeting entry criteria are enrolled and randomized to receive one of the following treatments: placebo, loxapine rapid delivery system ˜1.25 mg, loxapine rapid delivery system ˜2.5 mg, loxapine rapid delivery system ˜5 mg, loxapine rapid delivery system ˜10 mg. Higher loxapine doses may also be tested if found safe in a Phase I clinical trial. The loxapine rapid delivery system is a means of delivering loxapine to a migraine patient such that maximum plasma drug concentrations are obtained within 1 hour, 30 minutes, 15 minutes, 10 minutes, 5 minutes, or even 2 minutes or less. The condensation aerosol delivery system described above with respect to a Phase I clinical trial is one such system. Other rapid delivery systems include various durations of intravenous infusions or injections.
Immediately prior to receiving the treatment to which the patient has been randomized, the patient rates their severity of headache and nausea on a 4-point scale (0—absent, 1—mild, 2—moderate, 3—severe) and photophobic and phonophobia on a 2-point scale (Does light make your headache worse? 0—No, 1—Yes; Does noise make your headache worse? O—No, 1—Yes). Alternatively, an 11-point visual-analogue scale (0—none to 10—maximally severe) or other appropriate scale can be used. Subjects are asked to repeat these ratings at timepoints of 15 and 30 minutes following treatment, and also at 1, 2, 4, 8, 12 and 24 hours post treatment. Subjects are further asked for their global assessment of treatment efficacy (1—very poor to 5—very good) at 120 minutes and 24 hours post treatment. Concomitant medications, if any, are also recorded.

[7] = tested on: Beagle Dog; conditions: in vivo
[8] = 1 mg/kg i.p. 30 minutes before acetic acid, first or second experiment
[9] = 2 mg/kg i.p. 30 minutes before acetic acid, first or second experiment

SMILES: Clc1ccc2c(c1)C(N1CCNCC1)=Nc1ccccc1O2 [Amoxapine, 2-chloro-11(1-piperazinyl)dibenz(b,f) (1,4) oxazepine]
Reduction in acetic acid writhing, percentage of control vehicle pretreatment [1, 8]: −23% NS | Reduction in acetic acid writhing, percentage of control vehicle pretreatment [1, 9]: −39% * | Reduction in acetic acid writhing, percentage of control vehicle pretreatment ([1]; 4 mg/kg i.p. 30 minutes before acetic acid, first or second experiment): −71% *** | Reduction in acetic acid writhing, percentage of control vehicle pretreatment ([1]; 8 mg/kg i.p. 30 minutes before acetic acid, first or second experiment): −93% *** | Reduction in acetic acid writhing, percentage of control vehicle pretreatment ([1]; 16 mg/kg i.p. 30 minutes before acetic acid): −100% *** | Effect on the number of writhes induced by acetic acid [1]: dose-dependently decreased the number of writhes | Dose from which a clear / marked effect on writhing was observed ([1]; i.p.): ≥ 4 mg/kg | Dose from which the number of writhes was significantly decreased ([1]; i.p.): ≥ 2 mg/kg | Dose from which sedation was observed ([1]; male, mouse, in vivo, ip): ≥ 2 mg/kg | Cmax ([2]; lowest used oral dose 50 mg (Jue et al. 1982)): ~30 ng/mL | Cmax ([2]; oral 100 mg (Calvo et al. 1985)): ~50 ng/mL | Tmax after oral administration ([2]; oral 100 mg): ~1.5 h | Blood levels after repeated dosing ([2]; repeated amoxapine dosing (Calvo et al. 1985)): 30 to 300 ng/mL | Latency of the tail-flick [3]: no change

Food consumption [7]: roughly normal | Histopathological examination of gross lesions [7]: no treatment related findings | Histopathological examination of larynx, trachea, mainstem bronchi, lungs including bronchi [7]: No treatment related abnormalities | Signs of bronchoconstriction (wheezing, prolonged expiratory phase, cough) [7]: no signs of bronchoconstriction
SMILES: CN1CCN(C2=Nc3ccccc3Oc3ccc(Cl)cc32)CC1 [Loxapine, 2-chloro-11(4-methyl-1-piperazinyl)dibenz(b,f) (1,4) oxazepine]
Reduction in acetic acid writhing, percentage of control vehicle pretreatment ([1]; 0.125 mg/kg i.p. 30 minutes before acetic acid): −57% ** | Reduction in acetic acid writhing, percentage of control vehicle pretreatment ([1]; 0.25 mg/kg i.p. 30 minutes before acetic acid): −90% *** | Reduction in acetic acid writhing, percentage of control vehicle pretreatment [1, 8]: −100% *** | Reduction in acetic acid writhing, percentage of control vehicle pretreatment [1, 9]: −99% *** | Effect on the number of writhes induced by acetic acid [1]: dose-dependently decreased the number of writhes | Dose from which a clear / marked effect on writhing was observed ([1]; i.p.): ≥ 0.25 mg/kg | Dose from which the number of writhes was significantly decreased ([1]; i.p.): ≥ 0.125 mg/kg | Dose from which sedation was observed ([1]; i.p., mice): ≥ 0.25 mg/kg | Cmax for loxapine only ([2]; oral dose of 25 mg, a different study): 10 to 12 ng/mL | Tmax after oral administration ([2]; oral, manufacturer studies (Lederle Laboratories)): 2 to 3 h | Average rate of rise in loxapine plasma concentration ([4]; 0.2 mg/kg, first 2 minutes of dosing): at least 7 ng/mL/minute | Average rate of rise in loxapine plasma concentration ([4]; 0.2 mg/kg, first 10 minutes of dosing): ≥ 2 ng/mL/min | Average rate of rise in loxapine plasma concentration ([4]; 2 mg/kg, first 2 minutes of dosing): at least 70 ng/mL/minute | Average rate of rise in loxapine plasma concentration ([4]; 2 mg/kg, first 10 minutes of dosing): ≥ 20 ng/mL/min | Time to peak plasma concentration after end of drug inhalation ([4]; aerosol inhalation, first day of repeat dose): ≤ 2 min | Signs of headache after brief nap [5]: without any signs of headache | Return of headache ([5]; no further medication): does not return over the next 72 hours | Headache pain ([5]; over the 1 hour following the first 15 minutes): diminishes slowly | Therapeutic effect of the drug ([6]; 5 mg and 10 mg, rapid delivery system, within 1 hour): strong therapeutic effect | Severity of headache in treated patients ([6]; 5 mg and 10 mg, at 1 hour, even 30 minutes, sometimes 15 minutes): markedly lower than prior to treatment | Headache relief versus placebo ([6]; 5 mg or 10 mg, at 1 hour, statistically significant at p<0.05 assuming large sample): marked advantage | Persistence of advantage versus placebo ([6]; 5 mg or 10 mg, unless placebo patients get rescue medication): persists at 2 hours, 4 hours, 8 hours, and even 24 hours | Gross pathology findings at necropsy [7]: No treatment related findings
